According to ChEMBL document CHEMBL5257034, “Hybrid molecules: The privileged scaffolds for various pharmaceuticals” (Eur J Med Chem, 2016):
In brackets after ≈: the same amount, converted by molar mass.

Assays:
[1] = system: Plasmodium falciparum; assay: Antiplasmodial activity against Plasmodium falciparum W2 infected in red blood cells (unknown origin) incubated for 72 hrs by LDH assay; assay type: functional, organism-based, Red blood cell; conditions: W2, Erythrocyte
[2] = system: Mycobacterium tuberculosis; assay: Antibacterial activity against Mycobacterium tuberculosis H37Rv; assay type: functional
[3] = system: Aspergillus niger; assay: Antifungal activity against Aspergillus niger assessed as zone of inhibition; assay type: functional
[4] = system: Candida albicans; assay: Antifungal activity against Candida albicans assessed as zone of inhibition; assay type: functional
[5] = molecular target: T1, Polyunsaturated fatty acid 5-lipoxygenase (Rattus norvegicus, UniProt P12527); assay: Inhibition of 5-LOX in Sprague-Dawley rat leukocytes preincubated for 30 mins followed by calcium ionophore A23187 addition and measured after 20 mins by EIA; assay type: cell-based, Leucocyte
T1 sequence (P12527 whole entry): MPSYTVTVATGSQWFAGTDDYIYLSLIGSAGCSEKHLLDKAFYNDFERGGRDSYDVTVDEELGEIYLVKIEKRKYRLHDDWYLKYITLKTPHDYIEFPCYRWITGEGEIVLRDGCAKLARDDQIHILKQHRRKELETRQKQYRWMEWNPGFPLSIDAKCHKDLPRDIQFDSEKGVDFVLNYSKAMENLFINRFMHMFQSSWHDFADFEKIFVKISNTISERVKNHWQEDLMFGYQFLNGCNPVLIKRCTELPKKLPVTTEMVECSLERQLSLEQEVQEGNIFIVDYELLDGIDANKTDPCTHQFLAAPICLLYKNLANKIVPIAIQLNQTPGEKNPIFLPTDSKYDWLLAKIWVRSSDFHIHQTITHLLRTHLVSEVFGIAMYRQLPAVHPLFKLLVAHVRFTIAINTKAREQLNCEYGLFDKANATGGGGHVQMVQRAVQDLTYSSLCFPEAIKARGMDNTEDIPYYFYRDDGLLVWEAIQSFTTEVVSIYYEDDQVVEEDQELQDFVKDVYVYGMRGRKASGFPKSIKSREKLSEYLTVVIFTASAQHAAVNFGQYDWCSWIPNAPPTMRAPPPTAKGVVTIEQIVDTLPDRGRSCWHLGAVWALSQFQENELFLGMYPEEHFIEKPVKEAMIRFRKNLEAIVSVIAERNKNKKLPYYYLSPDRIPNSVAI

[6] = Selectivity index, ratio of IC50 for inhibition of COX2 in rat macrophages to IC50 for inhibition of COX1 in calf endotheliocyte
[7] = molecular target: T2, Prostaglandin G/H synthase 2 (Rattus norvegicus, UniProt P35355); assay: Inhibition of COX2 in rat macrophages using arachidonic acid as substrate preincubated with compound for 30 mins followed by substrate addition and measured after 20 mins by EIA; assay type: cell-based, Macrophage
T2 sequence (P35355 whole entry): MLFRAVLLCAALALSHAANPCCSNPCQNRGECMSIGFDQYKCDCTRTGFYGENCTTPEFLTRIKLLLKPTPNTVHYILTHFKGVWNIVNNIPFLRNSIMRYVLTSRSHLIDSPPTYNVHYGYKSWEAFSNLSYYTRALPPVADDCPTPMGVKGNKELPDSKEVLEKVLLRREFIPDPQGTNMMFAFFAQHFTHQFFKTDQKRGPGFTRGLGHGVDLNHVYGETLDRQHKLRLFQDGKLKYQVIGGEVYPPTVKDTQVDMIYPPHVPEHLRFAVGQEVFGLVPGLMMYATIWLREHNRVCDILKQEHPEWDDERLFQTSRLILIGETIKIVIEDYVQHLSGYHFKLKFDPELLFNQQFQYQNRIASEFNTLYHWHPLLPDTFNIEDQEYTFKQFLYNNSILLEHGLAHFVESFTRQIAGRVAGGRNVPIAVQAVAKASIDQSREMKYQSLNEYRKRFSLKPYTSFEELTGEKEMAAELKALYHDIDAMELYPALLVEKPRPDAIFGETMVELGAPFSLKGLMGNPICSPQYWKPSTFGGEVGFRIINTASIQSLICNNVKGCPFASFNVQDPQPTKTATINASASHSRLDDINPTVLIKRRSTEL

[8] = system: Mycobacterium tuberculosis; assay: Antibacterial activity against Mycobacterium tuberculosis; assay type: functional
[9] = system: Candida albicans; assay: Antifungal activity against Candida albicans; assay type: functional, organism-based
[10] = system: MCF7; assay: Cytotoxicity against human MCF7 cells measured 24 hrs by MTT assay; assay type: functional, cell-based; conditions: MCF7, 24 h
[11] = system: Mus musculus; assay: Antiinflammatory activity against ear oedema mouse model assessed as inhibition of xylene induced edema; assay type: functional
[12] = system: Candida albicans; assay: Antifungal activity against Candida albicans ATCC 76615 incubated for 24 hrs by microbroth dilution method; assay type: functional
[13] = system: Plasmodium falciparum; assay: Antimalarial activity against chloroquine-sensitive Plasmodium falciparum 3D7; assay type: functional
[14] = system: Aspergillus niger; assay: Antifungal activity against Aspergillus niger ATCC 9029; assay type: functional
[15] = system: Pichia kudriavzevii; assay: Antifungal activity against Candida krusei ATCC 6258; assay type: functional
[16] = system: Candida albicans; assay: Antifungal activity against Candida albicans ATCC 2091; assay type: functional
[17] = system: Mycobacterium tuberculosis; assay: Antibacterial activity against Mycobacterium tuberculosis H37Rv by alamar blue method; assay type: functional
[18] = system: Mycobacterium tuberculosis; assay: Antibacterial activity against Mycobacterium tuberculosis H37Rv assessed as reduction in relative light unit at 5.2 microg/ml incubated for 72 hrs by luciferase reporter phage assay relative to control; assay type: functional; parameters: scale not given: the % may be the effect or the level left; conditions: dose 5.2 µg/ml
[19] = system: Pichia norvegensis; assay: Antifungal activity against Candida mycoderma incubated for 24 hrs; assay type: functional

COc1cc(Nc2nc(OCc3cn(CCCNc4cccc5cc(Cl)ccc45)nn3)nc(N3CCOCC3)n2)cc(OC)c1 showed an IC50 [1] of 1730 nM.
For O=C(NN1C(=O)CSC1c1ccc([N+](=O)[O-])cc1)c1ccc(NCN2c3ccccc3Sc3ccccc32)cc1 (stereo not given), the MIC [2] was 3.12 µg/mL.
With COc1ccc(-c2nc(-c3ccccc3)c(-c3ccccc3)n2C(NN2CCNCC2)c2ccccc2)c(OC)c1OC (stereo not given) the “inhibition zone (IZ)” value [3] was 27 mm and the “inhibition zone (IZ)” value [4] was 28 mm.
CS(=O)(=O)c1ccc(-c2nc(SCCN(O)C(N)=O)nn2-c2ccc(Br)cc2)cc1 gave an IC50 [5] of 850 nM, a Ratio IC50 [6] of 0.015 and an IC50 [7] of 150 nM.
With O=C1NN=C(/N=C/c2cccc(Cl)c2)/C1=N\Nc1nc2c([N+](=O)[O-])cccc2s1 the MIC [8] was 1.66 µg/mL (≈ 3.88 µM).
In the case of NC(Cc1cc2ccccc2c2ccccc12)C(=O)N[C@H](C(=O)O)[C@H]1O[C@@H](n2ccc(=O)[nH]c2=O)[C@H](O)[C@@H]1O (stereo not given in full), the IC50 [9] is reported as 0.31 µg/mL (≈ 0.58 µM).
Molecule COc1cc(/C=C/c2ccc(O)cc2)cc(OC)c1 [PTEROSTILBENE] has an IC50 [10] of 65000 nM.
In the case of CSc1nc(-c2ccc(S(N)(=O)=O)cc2)n(-c2ccc(F)cc2)n1, the “inhibition (INH)” value [11] is reported as 75%.
Molecule Clc1ccc(Cn2c[n+](CCCCCC[n+]3cnn(Cc4ccc(Cl)cc4Cl)c3)cn2)c(Cl)c1.[Br-].[Br-] has an MIC [12] of 22.9 µg/mL.
In the case of CC1=C(c2nnc(/N=C3\C(=O)Nc4ccc(Cl)cc43)o2)C(c2ccccc2)NC(=S)N1 (stereo not given), the MIC [13] is reported as 0.035 µg/mL (≈ 0.0776 µM).
Work on CCCCCCCCCCCCCCCC[n+]1cnn(Cc2ccc(Cl)cc2Cl)c1.[Br-] yielded an MIC [12] of 30 µg/mL.
Molecule CCn1cc(C(=O)NN2C(=O)CSC2c2ccccc2OC)c(=O)c2cc(F)c(N3CCNCC3)cc21 (stereo not given) has an MIC [14] of 12.5 µg/mL (≈ 23.8 µM), an MIC [15] of 1.59 µg/mL (≈ 3.03 µM) and an MIC [16] of 3.12 µg/mL (≈ 5.95 µM).
Molecule COc1cc(Nc2nc(OCc3cn(CCCNc4cccc5cc(Cl)ccc45)nn3)nc(N(C)C)n2)cc(OC)c1 has an IC50 [1] of 1200 nM.
NC(=O)c1cnccn1 [PYRAZINAMIDE] gave an MIC [2] of 50.1 µM.
In the case of COc1ccc(-c2nc(-c3ccccc3)c(-c3ccccc3)n2C(NN2CCCCC2)c2ccccc2)c(OC)c1OC (stereo not given), the “inhibition zone (IZ)” value [3] is reported as 26 mm and the “inhibition zone (IZ)” value [4] is reported as 29 mm.
For c1c[nH]c(Cc2nc3ccccc3c3cc[nH]c23)c1, the MIC [17] was 3.3 µg/mL (≈ 13.3 µM).
In the case of CC(=O)OC[C@H]1O[C@@H](OCc2cn(Cc3ccc4ccccc4n3)nn2)[C@H](OC(C)=O)[C@@H](OC(C)=O)[C@@H]1OC(C)=O, the Activity [18] is reported as 76.41%.
In the case of COc1ccc(-c2nc(-c3ccccc3)c(-c3ccccc3)n2C(NN(c2ccccc2)c2ccccc2)c2ccccc2)c(OC)c1OC (stereo not given), the “inhibition zone (IZ)” value [3] is reported as 27 mm and the “inhibition zone (IZ)” value [4] is reported as 28 mm.
Molecule CCN(CC)CCCC(C)Nc1ccnc2cc(Cl)ccc12 (stereo not given) [CHLOROQUINE] has an MIC [13] of 0.125 µg/mL (≈ 0.391 µM).
In the case of CS(=O)(=O)c1ccc(-c2nc(S(C)(=O)=O)nn2-c2ccc(Br)cc2)cc1, the “inhibition (INH)” value [11] is reported as 70.8%.
With Cc1ccc(-c2cc(C(F)(F)F)nn2-c2ccc(S(N)(=O)=O)cc2)cc1 [CELECOXIB] the “inhibition (INH)” value [11] was 64.9%.
Molecule O=C1c2cccc3c(Br)ccc(c23)C(=O)N1CCCn1c[n+](Cc2ccc(F)cc2F)cn1.[Br-] has an MIC [19] of 4 µg/mL.
Molecule O=C1Nc2cc3c(-c4ccccc4)c(-c4ccccc4)oc(=O)c3cc2C(c2ccc([N+](=O)[O-])cc2)N1 (stereo not given) has an MIC [2] of 40 µg/mL.
